“And” between values parts separate entries of the source, which are not always exact repeats. Equal entries are not always repeated.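 Protocol summary: plate cells (96-well), add compound at 5 concentrations, incubate 48 h, interpolate endpoints linearly. GI50 marks 50% less growth. Definition used: TGI = concentration required for complete inhibition of growth.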
Assays:
Experiment in all cases: NCI-60 cell line screen, 48 h
CCRF-CEM leukemia = system: CCRF-CEM leukemia
DLD-1 colon = system: DLD-1 colon
HOP-92 NSCLC = system: HOP-92 NSCLC
M19-MEL melanoma = system: M19-MEL melanoma
SF-295 CNS = system: SF-295 CNS
SK-MEL-2 melanoma = system: SK-MEL-2 melanoma
SN12C renal = system: SN12C renal
TK-10 renal = system: TK-10 renal
UACC-257 melanoma = system: UACC-257 melanoma
MDA-MB-435 = system: MDA-MB-435

Compound: COC(=O)C1CCC(=O)N1/C(C)=N/NC(=O)Nc1ccc(Cl)c(Cl)c1 (configuration not stated)
- TGI (CCRF-CEM leukemia): > 100 µM
- TGI (DLD-1 colon): > 100 µM
- TGI (HOP-92 NSCLC): > 100 µM
- TGI (M19-MEL melanoma): > 100 µM
- TGI (SF-295 CNS): > 100 µM
- TGI (SK-MEL-2 melanoma): > 100 µM
- TGI (SN12C renal): > 100 µM
- TGI (TK-10 renal): > 100 µM
- TGI (UACC-257 melanoma): > 100 µM

Compound: C/C(CC(=O)Nc1cccc([N+](=O)[O-])c1)=N\NC(=O)C[n+]1ccccc1
- TGI (CCRF-CEM leukemia): > 100 µM
- TGI (DLD-1 colon): > 100 µM
- TGI (HOP-92 NSCLC): > 100 µM
- TGI (M19-MEL melanoma): > 100 µM
- TGI (SF-295 CNS): > 100 µM
- TGI (SK-MEL-2 melanoma): > 100 µM
- TGI (TK-10 renal): > 100 µM
- TGI (UACC-257 melanoma): > 100 µM

Compound: O=C(CC1=Nc2nnc(-c3nnc4n3C(=O)C(CC(=O)C3CC3)=N4)n2C1=O)C1CC1
- TGI (CCRF-CEM leukemia): > 100 µM
- TGI (DLD-1 colon): > 100 µM
- TGI (HOP-92 NSCLC): > 100 µM
- TGI (M19-MEL melanoma): > 100 µM
- TGI (SF-295 CNS): > 100 µM
- TGI (SK-MEL-2 melanoma): > 100 µM
- TGI (SN12C renal): > 100 µM
- TGI (TK-10 renal): > 100 µM
- TGI (UACC-257 melanoma): > 100 µM

Compound: N#CCCN(CCC#N)c1ccc(C=Nc2ccc(F)cc2)cc1
- TGI (CCRF-CEM leukemia): > 100 µM
- TGI (DLD-1 colon): > 100 µM
- TGI (HOP-92 NSCLC): > 100 µM
- TGI (M19-MEL melanoma): > 44.5 µM
- TGI (MDA-MB-435): > 100 µM
- TGI (SF-295 CNS): > 100 µM
- TGI (SK-MEL-2 melanoma): > 32.3 µM
- TGI (SN12C renal): > 100 µM
- TGI (TK-10 renal): > 92.6 µM
- TGI (UACC-257 melanoma): > 100 µM

Compound: COc1cc(CCc2ccc(OC(C)=O)cc2)cc(OC)c1OC
- TGI (CCRF-CEM leukemia): > 100 µM
- TGI (DLD-1 colon): > 100 µM
- TGI (HOP-92 NSCLC): > 100 µM
- TGI (M19-MEL melanoma): > 100 µM
- TGI (SF-295 CNS): > 100 µM
- TGI (SN12C renal): > 100 µM
- TGI (TK-10 renal): > 100 µM
- TGI (UACC-257 melanoma): > 100 µM

Compound: O=NN(CCCl)C(=O)NC1CCCCC1
- GI50 (CCRF-CEM leukemia): 8.23 µM and 22.6 µM
- TGI (CCRF-CEM leukemia): 40.9 µM and 98.4 µM and 57.5 µM
- GI50 (DLD-1 colon): 18.4 µM and 42.2 µM
- TGI (DLD-1 colon): 39.2 µM and 98.6 µM and 86.2 µM
- GI50 (HOP-92 NSCLC): 23.6 µM and 42.6 µM
- TGI (HOP-92 NSCLC): 48.7 µM and 99.1 µM and 74.7 µM
- GI50 (M19-MEL melanoma): 27.4 µM and 60.2 µM
- TGI (M19-MEL melanoma): 81.5 µM and 123 µM and 163 µM
- TGI (MDA-MB-435): 102 µM
- GI50 (SF-295 CNS): 91.7 µM
- TGI (SF-295 CNS): 118 µM
- GI50 (SK-MEL-2 melanoma): 22.7 µM and 194 µM
- TGI (SK-MEL-2 melanoma): 49.4 µM and 159 µM and 272 µM
- GI50 (SN12C renal): 20.9 µM and 92.8 µM
- TGI (SN12C renal): 47.8 µM and 123 µM and 214 µM
- GI50 (TK-10 renal): 28 µM and 87.4 µM
- TGI (TK-10 renal): 86.8 µM and 152 µM and 177 µM
- GI50 (UACC-257 melanoma): 23.7 µM
- TGI (UACC-257 melanoma): 73.8 µM and 127 µM and 82.4 µM

Compound: Nc1nc(=S)[nH]c(C(=O)Nc2nccs2)c1-c1ccccc1
- TGI (CCRF-CEM leukemia): > 100 µM
- TGI (DLD-1 colon): > 100 µM
- TGI (HOP-92 NSCLC): > 100 µM
- TGI (M19-MEL melanoma): > 100 µM
- TGI (SF-295 CNS): > 100 µM
- TGI (SK-MEL-2 melanoma): > 100 µM
- TGI (SN12C renal): > 100 µM
- TGI (TK-10 renal): > 100 µM
- TGI (UACC-257 melanoma): > 100 µM

Compound: CN(C)c1ccc(O[Si](Oc2ccc(N(C)C)cc2)(Oc2ccc(N(C)C)cc2)Oc2ccc(N(C)C)cc2)cc1
- TGI (CCRF-CEM leukemia): > 100 µM
- TGI (DLD-1 colon): > 100 µM
- TGI (HOP-92 NSCLC): > 100 µM
- TGI (M19-MEL melanoma): > 100 µM
- TGI (SF-295 CNS): > 100 µM
- TGI (SN12C renal): > 100 µM
- TGI (TK-10 renal): > 100 µM
- TGI (UACC-257 melanoma): > 100 µM

Compound: COc1ccc(C(=O)O/N=C2/CCCCC2CN(C)C)cc1 (configuration not stated)
- TGI (CCRF-CEM leukemia): > 100 µM
- TGI (DLD-1 colon): > 100 µM
- TGI (HOP-92 NSCLC): > 100 µM
- TGI (M19-MEL melanoma): > 100 µM
- TGI (SF-295 CNS): > 100 µM
- TGI (SK-MEL-2 melanoma): > 100 µM
- TGI (SN12C renal): > 100 µM
- TGI (TK-10 renal): > 100 µM
- TGI (UACC-257 melanoma): > 100 µM

Compound: CN(C)c1ccc(N=C2C=CC(=C(C#N)C#N)c3ccccc32)cc1
- TGI (CCRF-CEM leukemia): 3.46 µM
- TGI (DLD-1 colon): 16.1 µM
- TGI (HOP-92 NSCLC): 1.06 µM
- TGI (M19-MEL melanoma): 5.8 µM
- TGI (MDA-MB-435): 0.191 µM
- TGI (SF-295 CNS): 14.9 µM
- TGI (SK-MEL-2 melanoma): 6.7 µM
- TGI (SN12C renal): 15.9 µM
- TGI (TK-10 renal): 16.4 µM
- TGI (UACC-257 melanoma): 10.9 µM

Compound: Nc1nc(=S)c2[nH]cnc2[nH]1
- GI50 (CCRF-CEM leukemia): 0.227 µM and 0.314 µM and 0.488 µM
- TGI (DLD-1 colon): 202 µM
- TGI (HOP-92 NSCLC): 4.44 µM and 26.8 µM and 32.4 µM
- TGI (M19-MEL melanoma): 205 µM
- GI50 (MDA-MB-435): 349 nM and 552 nM
- GI50 (SF-295 CNS): 0.209 µM and 1.24 µM
- GI50 (SK-MEL-2 melanoma): 0.741 µM and 1.7 µM and 3.7 µM
- TGI (SN12C renal): > 100 µM and 171 µM and > 250 µM
- GI50 (TK-10 renal): 0.375 µM and 0.542 µM and 1.26 µM
- TGI (TK-10 renal): 41.3 µM and 67.7 µM and 9.02 µM
- GI50 (UACC-257 melanoma): 0.708 µM and 5.94 µM
- TGI (UACC-257 melanoma): > 70.3 µM and 110 µM and > 250 µM

Compound: CC1CC(C)C(C(O)CC2CC(=O)N(c3ccccc3)C(=O)C2)C(O)C1 (configuration not stated)
- TGI (CCRF-CEM leukemia): > 100 µM
- TGI (DLD-1 colon): > 100 µM
- TGI (HOP-92 NSCLC): > 100 µM
- TGI (M19-MEL melanoma): > 100 µM
- TGI (SF-295 CNS): > 100 µM
- TGI (SN12C renal): > 100 µM
- TGI (TK-10 renal): > 100 µM
- TGI (UACC-257 melanoma): > 100 µM

Compound: [Cl-].[Gd+3].[O-]/N=C(\c1ccccc1)c1ccccn1.[O-]/N=C(\c1ccccc1)c1ccccn1.[O-]/N=C(\c1ccccc1)c1ccccn1
- GI50 (CCRF-CEM leukemia): 34.3 µM
- TGI (CCRF-CEM leukemia): > 100 µM
- GI50 (DLD-1 colon): 39.9 µM
- TGI (DLD-1 colon): > 100 µM
- GI50 (HOP-92 NSCLC): > 100 µM
- TGI (HOP-92 NSCLC): > 100 µM
- GI50 (M19-MEL melanoma): 52.7 µM
- TGI (M19-MEL melanoma): > 100 µM
- GI50 (SF-295 CNS): 36.6 µM
- TGI (SF-295 CNS): > 100 µM
- GI50 (SK-MEL-2 melanoma): 27.1 µM
- TGI (SK-MEL-2 melanoma): 78.5 µM
- GI50 (SN12C renal): 66.8 µM
- TGI (SN12C renal): > 100 µM
- GI50 (TK-10 renal): 34.9 µM
- TGI (TK-10 renal): > 100 µM
- GI50 (UACC-257 melanoma): 86.5 µM
- TGI (UACC-257 melanoma): > 100 µM

Source: PubChem BioAssay (NCI)
